# How the values were obtained:
# [1] = system: labelled 22AG (DNA, G4) AGGGTTAGGGTTAGGGTTAGGG; assay: FRET efficiency (FAM/TAMRA); settings: no added Na+ or K+; 30 mM Tris-HCl pH 7.4, 25 °C, 1 bar; 2 µM DNA, 20 µM ThT; Erel rises on binding
# [2] = system: 22AG (DNA, G4) AGGGTTAGGGTTAGGGTTAGGG; assay: fluorescence titration (ThT titrated with 22AG); settings: 30 mM Tris-HCl pH 7.4, 25 °C, 1 bar, 2.14 µM ThT
smiles,measurement,setting,value
Cc1ccc2c(c1)sc(-c1ccc(N(C)C)cc1)[n+]2C,binding,[1],yes
same,Kb,"[2]; 60 mM KCl, equivalent independent sites fit",3.51 ± 0.42 × 10^5 M^-1
same,Kb,"[2]; 60 mM NaCl, equivalent independent sites fit",0.42 ± 0.04 × 10^5 M^-1
same,Kb,"[2]; no added Na+ or K+, 3 equivalent sites, free DNA mainly unfolded",0.87 ± 0.06 × 10^5 M^-1

# Source: article PMC8102477 (2021)
